Measurements from PubChem BioAssay AID2060493 (Molecular Pharmacology Branch, DTP, NCI, 2025).
Each block holds one molecule with its values, some of them ahead of it.

System: 616215-338-R-J1-PDC tumor spheroids, viability
Assay: Anticancer human tumor 616215-338-R-J1-PDC patient-derived colon adenocarcinoma cell line growth inhibition [GQUAD]
Conditions: spheroids with HUVEC and MSC; for IC50: curve of first compound; for viability, T/C: stronger effect = lower value
Method in brief: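 Viability of tumor cells grown as complex spheroids with endothelial and stromal cells, exposed to drug combinations. Top concentration at or near clinical Cmax (else 10 microM), diluted in half-log increments.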

[1] = second compound 0.0316 µM, first compound 0.0316 µM
[2] = second compound 0.0316 µM, first compound 0.316 µM
[3] = second compound 0.1 µM, first compound 0.0316 µM
[4] = second compound 0.1 µM, first compound 0.316 µM
[5] = second compound 0.316 µM, first compound 0.0316 µM
[6] = second compound 0.316 µM, first compound 0.316 µM
[7] = second compound 1 µM, first compound 0.0316 µM
[8] = second compound 1 µM, first compound 0.316 µM
[9] = second compound 3.16 µM, first compound 0.0316 µM
[10] = second compound 3.16 µM, first compound 0.316 µM
[11] = second compound 10 µM, first compound 0.0316 µM
[12] = second compound 10 µM, first compound 0.316 µM
[13] = second compound 0.0316 µM, first compound 0.1 µM
[14] = second compound 0.0316 µM, first compound 1 µM
[15] = second compound 0.0316 µM, first compound 3.16 µM
[16] = second compound 0.0316 µM, first compound 10 µM
[17] = second compound 0.1 µM, first compound 0.1 µM
[18] = second compound 0.1 µM, first compound 1 µM
[19] = second compound 0.1 µM, first compound 3.16 µM
[20] = second compound 0.1 µM, first compound 10 µM
[21] = second compound 0.316 µM, first compound 0.1 µM
[22] = second compound 0.316 µM, first compound 1 µM
[23] = second compound 0.316 µM, first compound 3.16 µM
[24] = second compound 0.316 µM, first compound 10 µM
[25] = second compound 1 µM, first compound 0.1 µM
[26] = second compound 1 µM, first compound 1 µM
[27] = second compound 1 µM, first compound 3.16 µM
[28] = second compound 1 µM, first compound 10 µM
[29] = second compound 3.16 µM, first compound 0.1 µM
[30] = second compound 3.16 µM, first compound 1 µM
[31] = second compound 3.16 µM, first compound 3.16 µM
[32] = second compound 3.16 µM, first compound 10 µM
[33] = second compound 10 µM, first compound 0.1 µM
[34] = second compound 10 µM, first compound 1 µM
[35] = second compound 10 µM, first compound 3.16 µM
[36] = second compound 10 µM, first compound 10 µM
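Further: spheroids exposed to agents for 7 days before readout.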
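Wherever viability, T/C is given: percent viability relative to DMSO vehicle control wells taken as 100%.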

Structure (SMILES): COc1cc(C2c3cc4c(cc3C(OC3OC5COC(C)OC5C(O)C3O)C3COC(=O)C23)OCO4)cc(OC)c1O (stereo not given) + Cc1cnc(CNC(=O)c2c(=O)c3ccc(N4CCCN(C)CC4)nc3n3c2sc2ccccc23)cn1
IC50 (second compound 0.0316 µM): 481 nM
IC50 (second compound 0.1 µM): 456 nM
IC50 (second compound 0.316 µM): < 31.6 nM
IC50 (second compound 1 µM): < 31.6 nM
IC50 (second compound 3.16 µM): < 31.6 nM
IC50 (second compound 10 µM): < 31.6 nM
viability, T/C [1]: 104%
viability, T/C [13]: 98.3%
viability, T/C [2]: 54.3%
viability, T/C [14]: 44.2%
viability, T/C [15]: 57.3%
viability, T/C [16]: 23.9%
viability, T/C [3]: 65.7%
viability, T/C [17]: 61%
viability, T/C [4]: 55.8%
viability, T/C [18]: 38.8%
viability, T/C [19]: 32.2%
viability, T/C [20]: 30.6%
viability, T/C [5]: 39.5%
viability, T/C [21]: 46.2%
viability, T/C [6]: 29.3%
viability, T/C [22]: 36.3%
viability, T/C [23]: 30.6%
viability, T/C [24]: 17.7%
viability, T/C [7]: 32.3%
viability, T/C [25]: 32.8%
viability, T/C [8]: 33.8%
viability, T/C [26]: 34.3%
viability, T/C [27]: 23.3%
viability, T/C [28]: 18.4%
viability, T/C [9]: 34.5%
viability, T/C [29]: 23.7%
viability, T/C [10]: 28.3%
viability, T/C [30]: 27%
viability, T/C [31]: 28.2%
viability, T/C [32]: 24.3%
viability, T/C [11]: 28.2%
viability, T/C [33]: 29.7%
viability, T/C [12]: 26.6%
viability, T/C [34]: 36.3%
viability, T/C [35]: 22.3%
viability, T/C [36]: 23.8%

Structure (SMILES): COc1cccc2c1C(=O)c1c(O)c3c(c(O)c1C2=O)CC(O)(C(=O)CO)CC3OC1CC(N)C(O)C(C)O1 (stereo not given) + Cc1cnc(CNC(=O)c2c(=O)c3ccc(N4CCCN(C)CC4)nc3n3c2sc2ccccc23)cn1
IC50 (second compound 0.0316 µM): 381 nM
IC50 (second compound 0.1 µM): 410 nM
IC50 (second compound 0.316 µM): < 31.6 nM
IC50 (second compound 1 µM): < 31.6 nM
IC50 (second compound 3.16 µM): < 31.6 nM
IC50 (second compound 10 µM): < 31.6 nM
viability, T/C [1]: 102%
viability, T/C [13]: 54.7%
viability, T/C [2]: 50.2%
viability, T/C [14]: 40.5%
viability, T/C [15]: 20.2%
viability, T/C [16]: 1.32%
viability, T/C [3]: 56%
viability, T/C [17]: 67.4%
viability, T/C [4]: 49.7%
viability, T/C [18]: 39.2%
viability, T/C [19]: 19.4%
viability, T/C [20]: 1.25%
viability, T/C [5]: 38.2%
viability, T/C [21]: 39%
viability, T/C [6]: 32%
viability, T/C [22]: 27.7%
viability, T/C [23]: 19.9%
viability, T/C [24]: 0.1%
viability, T/C [7]: 28.1%
viability, T/C [25]: 37.7%
viability, T/C [8]: 34.5%
viability, T/C [26]: 26%
viability, T/C [27]: 12.6%
viability, T/C [28]: 0.1%
viability, T/C [9]: 29.8%
viability, T/C [29]: 28.1%
viability, T/C [10]: 35.1%
viability, T/C [30]: 16.4%
viability, T/C [31]: 15.3%
viability, T/C [32]: 0.16%
viability, T/C [11]: 28%
viability, T/C [33]: 20.8%
viability, T/C [12]: 28.3%
viability, T/C [34]: 23.1%
viability, T/C [35]: 3.24%
viability, T/C [36]: 0.25%

Structure (SMILES): O=c1[nH]cc(F)c(=O)[nH]1 + Cc1cnc(CNC(=O)c2c(=O)c3ccc(N4CCCN(C)CC4)nc3n3c2sc2ccccc23)cn1
IC50 (second compound 0.0316 µM): 786 nM
IC50 (second compound 0.1 µM): 559 nM
IC50 (second compound 0.316 µM): < 31.6 nM
IC50 (second compound 1 µM): < 31.6 nM
IC50 (second compound 3.16 µM): < 31.6 nM
IC50 (second compound 10 µM): < 31.6 nM
viability, T/C [1]: 98.8%
viability, T/C [13]: 98.7%
viability, T/C [2]: 62.9%
viability, T/C [14]: 51.5%
viability, T/C [15]: 40.4%
viability, T/C [16]: 35.8%
viability, T/C [3]: 66.8%
viability, T/C [17]: 62.4%
viability, T/C [4]: 54.1%
viability, T/C [18]: 40.4%
viability, T/C [19]: 46.5%
viability, T/C [20]: 31.5%
viability, T/C [5]: 40.9%
viability, T/C [21]: 48.7%
viability, T/C [6]: 54.6%
viability, T/C [22]: 36.1%
viability, T/C [23]: 43%
viability, T/C [24]: 39.2%
viability, T/C [7]: 32.4%
viability, T/C [25]: 39.2%
viability, T/C [8]: 42.6%
viability, T/C [26]: 33.4%
viability, T/C [27]: 36.6%
viability, T/C [28]: 22.4%
viability, T/C [9]: 31.7%
viability, T/C [29]: 25.2%
viability, T/C [10]: 22.1%
viability, T/C [30]: 30.3%
viability, T/C [31]: 34.1%
viability, T/C [32]: 28.7%
viability, T/C [11]: 25.7%
viability, T/C [33]: 28.7%
viability, T/C [12]: 25.6%
viability, T/C [34]: 30.3%
viability, T/C [35]: 25.6%
viability, T/C [36]: 30.4%

Now those with a lower IC50 (second compound 0.0316 µM), led by results:

IC50 (second compound 0.0316 µM): 274 nM
IC50 (second compound 0.1 µM): 142 nM
IC50 (second compound 0.316 µM): < 0.999 nM
IC50 (second compound 1 µM): < 0.999 nM
IC50 (second compound 3.16 µM): < 0.999 nM
IC50 (second compound 10 µM): < 0.999 nM
Structure (SMILES): CC[C@@]1(O)C(=O)OCc2c1cc1n(c2=O)Cc2cc3c(CN(C)C)c(O)ccc3nc2-1 + Cc1cnc(CNC(=O)c2c(=O)c3ccc(N4CCCN(C)CC4)nc3n3c2sc2ccccc23)cn1
viability, T/C (second compound 0.0316 µM, first compound 0.000999 µM): 116%
viability, T/C (second compound 0.0316 µM, first compound 0.00316 µM): 102%
viability, T/C (second compound 0.0316 µM, first compound 0.00999 µM): 92.5%
viability, T/C [1]: 94.9%
viability, T/C (second compound 0.0316 µM, first compound 0.0999 µM): 87%
viability, T/C [2]: 43.7%
viability, T/C (second compound 0.1 µM, first compound 0.000999 µM): 81.5%
viability, T/C (second compound 0.1 µM, first compound 0.00316 µM): 68.1%
viability, T/C (second compound 0.1 µM, first compound 0.00999 µM): 64.2%
viability, T/C [3]: 74.8%
viability, T/C (second compound 0.1 µM, first compound 0.0999 µM): 54.1%
viability, T/C [4]: 35.4%
viability, T/C (second compound 0.316 µM, first compound 0.000999 µM): 38.5%
viability, T/C (second compound 0.316 µM, first compound 0.00316 µM): 45.3%
viability, T/C (second compound 0.316 µM, first compound 0.00999 µM): 39.2%
viability, T/C [5]: 40.5%
viability, T/C (second compound 0.316 µM, first compound 0.0999 µM): 53.4%
viability, T/C [6]: 40.2%
viability, T/C (second compound 1 µM, first compound 0.000999 µM): 36.9%
viability, T/C (second compound 1 µM, first compound 0.00316 µM): 38.4%
viability, T/C (second compound 1 µM, first compound 0.00999 µM): 32.4%
viability, T/C [7]: 27.7%
viability, T/C (second compound 1 µM, first compound 0.0999 µM): 24.9%
viability, T/C [8]: 25.3%
viability, T/C (second compound 3.16 µM, first compound 0.000999 µM): 37.1%
viability, T/C (second compound 3.16 µM, first compound 0.00316 µM): 36.5%
viability, T/C (second compound 3.16 µM, first compound 0.00999 µM): 31.6%
viability, T/C [9]: 34.2%
viability, T/C (second compound 3.16 µM, first compound 0.0999 µM): 29.3%
viability, T/C [10]: 18.5%
viability, T/C (second compound 10 µM, first compound 0.000999 µM): 31.9%
viability, T/C (second compound 10 µM, first compound 0.00316 µM): 25%
viability, T/C (second compound 10 µM, first compound 0.00999 µM): 42.2%
viability, T/C [11]: 24.2%
viability, T/C (second compound 10 µM, first compound 0.0999 µM): 25.3%
viability, T/C [12]: 16.1%

IC50 (second compound 0.0316 µM): < 31.6 nM
IC50 (second compound 0.1 µM): 109 nM
IC50 (second compound 0.316 µM): < 31.6 nM
IC50 (second compound 1 µM): < 31.6 nM
IC50 (second compound 3.16 µM): < 31.6 nM
IC50 (second compound 10 µM): < 31.6 nM
Structure (SMILES): Nc1ccn(C2OC(CO)C(O)C2(F)F)c(=O)n1 (stereo not given) + Cc1cnc(CNC(=O)c2c(=O)c3ccc(N4CCCN(C)CC4)nc3n3c2sc2ccccc23)cn1
viability, T/C [1]: 35.4%
viability, T/C [13]: 35.6%
viability, T/C [2]: 16.7%
viability, T/C [14]: 14.6%
viability, T/C [15]: 17.8%
viability, T/C [16]: 14.1%
viability, T/C [3]: 48.2%
viability, T/C [17]: 56.5%
viability, T/C [4]: 20.4%
viability, T/C [18]: 16.5%
viability, T/C [19]: 19.9%
viability, T/C [20]: 14.9%
viability, T/C [5]: 45.8%
viability, T/C [21]: 26.8%
viability, T/C [6]: 17.7%
viability, T/C [22]: 20.3%
viability, T/C [23]: 15.1%
viability, T/C [24]: 17%
viability, T/C [7]: 32.5%
viability, T/C [25]: 30.7%
viability, T/C [8]: 24.1%
viability, T/C [26]: 28.2%
viability, T/C [27]: 18.3%
viability, T/C [28]: 18.4%
viability, T/C [9]: 28.4%
viability, T/C [29]: 41.8%
viability, T/C [10]: 24%
viability, T/C [30]: 20.4%
viability, T/C [31]: 16.4%
viability, T/C [32]: 23.5%
viability, T/C [11]: 28.4%
viability, T/C [33]: 28.8%
viability, T/C [12]: 22.4%
viability, T/C [34]: 21%
viability, T/C [35]: 20%
viability, T/C [36]: 18.5%
